Experimental data: patent publication US20180185327A1, “FORMULATION COMPRISING PARTICLES AND A LIPASE INHIBITOR” (PERORA GMBH, priority 2015, published 2018)
Where two headings read alike, the source gives them in different places.

Columns and labels:
[1] = cited from earlier work
[2] = after an oral dose; cited from earlier work
[3] = High fat diet feeding experiments in rats (cream chow with orlistat, with or without polymer or lipid granulate); type: in vivo, male wistar rats; conditions: Ex. 3.2: four rats, cream chow 50% fat with added orlistat 0.6 mg/g chow, seven days
Procedure: Animals (male rats) were kept in cages on standard animal bedding (two animals per cage or individual housing) and were provided with ad libitum access to food and water. Animal food was provided as pellets in a pellet rack or as a cream or as granulate powder each filled in a container attached to the inside of the cage.
Body weight was recorded at beginning and end of experiments. Food consumption was documented daily except for weekends. Experiments were performed according to German laws of animal protection.
Rodent chow was purchased from ssniff Spezialdiaten GmbH, Germany; poly(acrylic acid) (PAA, Carbopol® 971 P NF) was obtained from the Lubrizol Corporation, USA; and HPMC (AnyAddy®) was obtained from Harke Pharma, Germany. Orlistat (Hexal, Germany) was purchased in a local pharmacy. Hard fat/tripalmitin (Dynasan® 116), triglyceride (Witepsol® E85), glycerol monooleate (Imwitor®990), and Xanthan were obtained from NRC/Jungbunzlauer, Germany. Glycerol monolaurate (GML 90 food) was obtained from Mosselman, Belgium. Resistant dextrin (Nutriose® FB06) was obtained from Barentz, Germany or Barentz, Netherlands.

CCCCCCCCCCC[C@@H](C[C@@H]1OC(=O)[C@H]1CCCCCC)OC(=O)[C@H](CC(C)C)NC=O [orlistat]
dietary fat prevented from being absorbed ([1]; standard over-the-counter dose of 60 mg): about 25%
dietary fat prevented from being absorbed ([1]; standard prescription dose of 120 mg three times daily before meals): approximately 30%
amount absorbed systemically [2]: Only trace amounts
body weight lost (±SD) [3]: 2.5±1.4%
mean daily food intake [3]: 23.6 g
